The text below walks through data of USRE29359E, “Bronchodilator expectorant composition containing theophylline and a guaiacol” (priority 1976, dated 1977).

The structures appear in SMILES notation. Converted amounts (≈) assume the structure as drawn. Read-outs that look alike come from different tables or passages of the source.

For data set [1] the following is noted: cited from earlier work.
Data set [2] can be described thus: Sucrose as supplementary solubilizing agent, crystallization after 3 days (Example 5). How it is done: Solutions containing varying quantities of theophylline, glyceryl guaiacolate, and sucrose according to the figures arranged in the following table are prepared. The ingredients are warmed to about 60° C. to effect solution and the solutions are then kept at room temperature to observe whether crystallization occurs. Sucrose is taken as representative of the total of all other water soluble pharmaceutically acceptable ingredients that may be used in formulating the present compositions for the purposes of this experiment. It is apparent, of course, that the actual weight of flavors, colors, and other ingredients that will ordinarily be used for the purpose of creating pharmaceutical elegance will be relatively minor and that sucrose or equivalent material such as corn syrup or sorbitol is the only ingredient of this type which will ordinarily be used in substantial quantity.
(§1) (1) per 100 ml. of solution.
(§2) (2) per 100 ml. of water in solution.
*Appearance of duplicate samples after being stored separately at
26° C. and at 0° C. for 3 days.

The conditions of data set [3]: cited from earlier work. The source holds these as a separate data set.
A short description of data set [4]: Guaiacol as solubilizing agent for theophylline in water (Example 2). In kind it is physicochemical. The procedure: In order to test the effectiveness of guaiacol as a solubilizing agent for theophylline in water, an experiment corresponding to the last entry in the table accompanying Example 1 is conducted. Theophylline, 4.0 g., and guaiacol, 4.39 g. […] A haze forms as the result of liquefaction of the guaiacol without complete solution thereof.
This amount will solubilize up to and including 4.25 g. of theophylline per 100 ml. of water in the composition. For lower theophylline concentrations, proportionately less guaiacol may be used, 0.47 g. thereof per 100 ml. being sufficient to solubilize 0.85 g. of theophylline per 100 ml.

The nature of data set [5]: Solubility of theophylline in water with glyceryl guaiacolate, crystallization after 3 days (Example 1). In kind it is physicochemical. Particulars: for Result (appearance after storage): 3 days. The procedure: Varying quantities of theophylline and glyceryl guaiacolate are mixed and warmed with sufficient water to provide 100 ml. of solution. The solutions are cooled, adjusted to 100 ml. volume, and kept for 3 days to allow crystallization to take place. The specific gravities of the fresh solutions are measured, and the amount of water contained in 100 ml. of solution calculated. Two identical tubes of each composition are prepared. One is kept at room temperature (25° C.) and the other at 0° C.
A larger quantity of theophylline, 1.0 g./100 ml., will, however, dissolve when 0.75 g. of glyceryl guaiacolate per 100 ml. is also present in solution. Up to 4.0 g. of theophylline per 100 ml. of solution is soluble at room temperature when 7.0 g. of glyceryl guaiacolate per 100 ml. of solution is employed.
as §1, §2

The conditions of data set [6]: accepted by the art; cited from earlier work.
For data set [7] the following is noted: cited from earlier work. This is another data set of the same source.
A short description of data set [8]: Solubility in water or ethanol (statements in the description).

As for `Cn1c(=O)c2[nH]cnc2n(C)c1=O` [aminophylline], the “precipitation under acidic conditions” value in data set [1] (acidic conditions such as occur in the stomach) is listed as “precipitation often occurs”. Also, the “solubility in alkaline solution” value in data set [1] (in excess of pH 8.0) is reported as “relatively high solubilities in alkaline solution”.
For `COc1ccccc1OCC(O)CO` (stereo not drawn) [glyceryl guaiacolate], in [2], the “glyceryl guaiacolate per 100 ml. of water in composition” value is 8.7 g. per 100 ml. of water. Besides, the “glyceryl guaiacolate upper concentration limit with sucrose” value in [2] (water, 72 h) was ≥ 8.7 g. per 100 ml. of water. The “concentration of saturated solution in water” value in [3] (25 °C) was 5 g./100 ml. Also, the water solubility in [3] was ≥ 1.7 g./100 ml.
On to `COc1ccccc1O` [guaiacol], for which the “specific gravity of solution” value in [4] (guaiacol 3.8 g, theophylline 4.0 g) is recorded as ~1.016. In addition, in data set [4] (guaiacol 3.8 g, 3 days, room temperature or 0 °C), the crystallization on storage result is “no crystals separate”. Also, the “useful upper guaiacol solubility ratio” value in [4] (room temperature or 0 °C, 4320 min) was “about 4.05 g. per 100 ml. of water”. The appearance of solution entry in data set [4] (theophylline 4.0 g, guaiacol 3.8 g) is given as “clear solution”; in data set [4] (theophylline 4.0 g, guaiacol 4.39 g) it was “A haze forms”. Further, in data set [4] (with 4.37 g. theophylline), the “guaiacol dissolved in 100 ml. of water” value was found to be 4.05 g. Further, the “concentration of saturated solution in water” value in [3] (room temperature, absence of other solutes) is 1.7 g./100 ml. Besides, the water solubility in data set [3] is recorded as ≥ 1.7 g./100 ml.
`COc1ccccc1OC1(O)C(=O)NC(=O)NC1=O` [hemiacetal condensation product of guaiacol and alloxan]: the water solubility in data set [3] is ≥ 1.7 g./100 ml.
As to `COc1cc(S(=O)(=O)[O-])ccc1O.O.[K+]` [potassium guaiacol sulfonate], the crystallization on storage result (potassium guaiacol sulfonate 4.28 g, theophylline 1.5 g per 100 ml., ice temperature) is on record as “Slight crystallization occurs”; the crystallization on storage result (potassium guaiacol sulfonate 4.28 g, theophylline 2 g per 100 ml., 0 °C) is recorded as “Crystallization from this solution occurs”; the crystallization on storage result (potassium guaiacol sulfonate 8.56 g, theophylline 4.0 g in 100 ml., 0 °C) is listed as “Crystallization from this solution occurs”; the crystallization on storage entry (potassium guaiacol sulfonate 8.56 g, theophylline 4.0 g in 100 ml., room temperature) is “Crystallization from this solution occurs”. Besides, where the note is “potassium guaiacol sulfonate 4.28 g, theophylline 1.5 g per 100 ml., room temperature”, the appearance of solution entry was “clear solution”. The “separation of solid on storage” value (potassium guaiacol sulfonate 4.28 g, theophylline 2 g per 100 ml., room temperature) is reported as “only very slight separation of solid material occurs”. The water solubility in [3] is listed as ≥ 1.7 g./100 ml.
With `Cn1c(=O)c2[nH]cnc2n(C)c1=O` [theophylline], the “crystallization at ice temperature” value in [5] (4.0 g theophylline, 7.0 g glyceryl guaiacolate per 100 ml. solution) is listed as “Crystallization at ice temperature does, however, occur”; in data set [5] (4.37 g theophylline, 7.64 g glyceryl guaiacolate per 100 ml. water), “Slight crystallization”. The “theophylline soluble per 100 ml. of solution” value in [5] (glyceryl guaiacolate 7.0 g. per 100 ml. of solution, room temperature, 4320 min) is “Up to 4.0 g. per 100 ml. of solution”. Moreover, the “Result (appearance after storage)” value in [5] (theophylline 0.83 g, glyceryl guaiacolate 0 per 100 ml solution, 25 °C) is given as “Clear Solution”; in [5] (theophylline 0.85 g, glyceryl guaiacolate 0 per 100 ml solution, 0 °C) it was “Crystals formed”; in data set [5] (theophylline 1.00 g, glyceryl guaiacolate 0.75 g per 100 ml solution, 25 °C), “Solution clear”; in data set [5] (theophylline 3.50 g, glyceryl guaiacolate 4.00 g per 100 ml solution, 0 °C), “Crystals formed”; in data set [5] (theophylline 3.50 g, glyceryl guaiacolate 5.00 g per 100 ml solution, 25 °C) it was “Clear solution”; in data set [5] (theophylline 4.00 g, glyceryl guaiacolate 7.00 g per 100 ml solution, 0 °C), “Crystals formed”. Further, the “Result (appearance after storage)” value in data set [5] (theophylline 4.00 g, glyceryl guaiacolate 7.00 g per 100 ml solution, 25 °C) is given as “Clear solution”. Also, the solubility was < 8.5 mg/mL in [5] (water, no glyceryl guaiacolate, read-out: normal solubility of theophylline (exceeded by)) and 80 mg/mL (≈ 444 mM) in data set [8] (water). Also, in data set [4] (guaiacol 0.47 g. per 100 ml.), the “theophylline solubilized by guaiacol” value came out at 0.85 g. per 100 ml. The “theophylline solubilized per 100 ml. of water” value in [4] (guaiacol about 4.05 g. per 100 ml. water, 4320 min) is ≤ 4.25 g. per 100 ml. of water. Further, in data set [2], the “theophylline per 100 ml. of water in composition” value was 4.4 g. per 100 ml. of water. Besides, the solubility at 72 h in data set [2] (water) is ≥ 44 mg/mL. The therapeutic blood concentration in data set [6] is 5 µg/mL. Besides, the solubility in ethanol in [3] (published figure) was 1.25 g./100 ml. For the same compound, in data set [7] (intramuscular), the “pain on intramuscular injection” value is given as “painful”. Moreover, the absorption pattern entry in [7] (oral) is “irregular absorption pattern”. The gastrointestinal side effects result in data set [7] (oral) is “frequently results in abdominal discomfort, nausea, and vomiting”. Also, the “concentration in aqueous solution with guaiacol or water soluble forms thereof” value in [8] (solubilized by guaiacol and water soluble forms) is given as ≤ 4.0 g./100 ml. Further, the “effect of water soluble ingredients on theophylline solubility” value in data set [8] (sucrose, sorbitol, glycerol, ethanol, solubilized by guaiacol and its derivatives) was “do not tend to diminish the solubility of the theophylline significantly”.
